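These data come from cells grown in 96-well plates and exposed to compound for 48 hours at five concentrations. Here, GI50 denotes the concentration required for 50% inhibition of growth.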 Calls of active or inactive are those of the source. No stated cut-off is given here; in the data, active = GI50 up to about 1.1 µM and inactive = higher.
Assays:
Test in all cases: NCI tumour cell line growth inhibition, 48 h
[1] = system: NCI-H226
[2] = system: COLO 205
[3] = system: EKVX
[4] = system: MCF7
[5] = system: K562
[6] = system: SF-268
[7] = system: CCRF-CEM
[8] = system: OVCAR-4
[9] = system: MDA-MB-435
[10] = system: M14
[11] = system: MOLT-4
[12] = system: SK-OV-3
[13] = system: RXF 393
[14] = system: TK-10
[15] = system: SNB-75
[16] = system: HCT-15
[17] = system: HCT-116
[18] = system: KM12
[19] = system: HOP-62
[20] = system: SF-539

SMILES | GI50 [1] | GI50 [2] | GI50 [3] | GI50 [4] | GI50 [5] | GI50 [6] | GI50 [7] | GI50 [8] | GI50 [9] | GI50 [10] | GI50 [11] | GI50 [12] | GI50 [13] | GI50 [14] | GI50 [15] | GI50 [16] [µM] | GI50 [17] | GI50 [18] | GI50 [19] | GI50 [20]
Cc1ccc(S(=O)ON2CCC(C(=O)O)(c3ccccc3)CC2)cc1 (stereo not given) | > 100 µM (inactive) | > 100 µM (inactive) | 33.3 µM (inactive) | > 100 µM (inactive) | > 100 µM (inactive) | > 100 µM (inactive) | > 100 µM (inactive) | > 100 µM (inactive) | > 100 µM (inactive) | > 100 µM (inactive) | > 100 µM (inactive) | > 100 µM (inactive) | > 100 µM (inactive) | > 100 µM (inactive) | > 100 µM (inactive) | > 100 | > 100 µM (inactive) | > 100 µM (inactive) | > 100 µM (inactive) | 
Cc1ccsc1/C=N/NC1=NCCN1 | > 100 µM (inactive) | > 100 µM (inactive) | > 100 µM (inactive) | > 100 µM (inactive) | > 100 µM (inactive) | > 100 µM (inactive) | > 100 µM (inactive) | > 100 µM (inactive) | > 100 µM (inactive) | > 100 µM (inactive) | > 100 µM (inactive) | > 100 µM (inactive) | > 100 µM (inactive) | > 100 µM (inactive) | > 100 µM (inactive) | > 100 | > 100 µM (inactive) | > 100 µM (inactive) | > 100 µM (inactive) | 
COC(=O)C1CC(C=[N+](C)C)=C(SC)N1 (stereo not given) |  | > 100 µM (inactive) | > 100 µM (inactive) | > 100 µM (inactive) | > 100 µM (inactive) | > 100 µM (inactive) |  | > 100 µM (inactive) | > 100 µM (inactive) | > 100 µM (inactive) | > 100 µM (inactive) | > 100 µM (inactive) | > 100 µM (inactive) | > 100 µM (inactive) | > 100 µM (inactive) | > 100 | > 100 µM (inactive) | > 100 µM (inactive) | > 100 µM (inactive) | 
NC(Cc1ccccc1)C(=O)N[C@H]1c2ccsc2/C(=N/O)[C@H]1O (stereo not given in full) | > 100 µM (inactive) | > 100 µM (inactive) | > 100 µM (inactive) | > 100 µM (inactive) | > 100 µM (inactive) |  | > 100 µM (inactive) | > 100 µM (inactive) | > 100 µM (inactive) | > 100 µM (inactive) | > 10 µM (inactive) | > 100 µM (inactive) | > 100 µM (inactive) | > 100 µM (inactive) |  | > 100 | > 100 µM (inactive) |  | > 100 µM (inactive) | > 100 µM (inactive)
CC(=O)c1ccc2c3c1[C@@H]1O[C@@H]1c1cccc(c1-3)[C@@H]1O[C@H]21 | 37.8 µM (inactive) | 9.79 µM (inactive) | 16.4 µM (inactive) | 4 µM (inactive) | 4.47 µM (inactive) | 6.62 µM (inactive) | 2.86 µM (inactive) | 13.6 µM (inactive) | 6.92 µM (inactive) | 6.85 µM (inactive) | 14.1 µM (inactive) | 28.6 µM (inactive) | 11.5 µM (inactive) | 20.7 µM (inactive) | 13.5 µM (inactive) | 3.44 | 4.54 µM (inactive) | 7.52 µM (inactive) | 13.7 µM (inactive) | 
O=c1[nH]c(=O)n(C2OC(CO)C(O)C2O)cc1OCCCc1ccccc1 (stereo not given) | > 100 µM (inactive) | > 100 µM (inactive) | > 100 µM (inactive) | > 100 µM (inactive) |  | > 100 µM (inactive) | > 100 µM (inactive) | > 100 µM (inactive) | > 100 µM (inactive) | > 100 µM (inactive) | > 100 µM (inactive) | > 100 µM (inactive) | > 100 µM (inactive) | > 100 µM (inactive) |  | > 100 | > 100 µM (inactive) | > 100 µM (inactive) | > 100 µM (inactive) | > 100 µM (inactive)
O=P(Oc1ccc(Cl)cc1)(Oc1ccc(Cl)cc1)N1CC1 | > 10 µM (inactive) | > 10 µM (inactive) | > 10 µM (inactive) | > 10 µM (inactive) | > 10 µM (inactive) | > 10 µM (inactive) | 0.174 µM (active) | > 10 µM (inactive) | > 10 µM (inactive) | > 10 µM (inactive) | > 10 µM (inactive) | > 10 µM (inactive) |  | > 10 µM (inactive) | > 10 µM (inactive) | > 10 |  | > 10 µM (inactive) | > 10 µM (inactive) | > 10 µM (inactive)
O=C(OCC(OC(=O)c1ccccc1)C(OC(=O)c1ccccc1)C(OC(=O)c1ccccc1)c1cnn(-c2ccccc2)n1)c1ccccc1 (stereo not given) | > 100 µM (inactive) | > 100 µM (inactive) | > 100 µM (inactive) | > 100 µM (inactive) | > 100 µM (inactive) | > 100 µM (inactive) | > 100 µM (inactive) | > 100 µM (inactive) | > 100 µM (inactive) | > 100 µM (inactive) | > 100 µM (inactive) | > 100 µM (inactive) | > 100 µM (inactive) | > 100 µM (inactive) |  | > 100 | > 100 µM (inactive) | > 100 µM (inactive) | > 100 µM (inactive) | > 100 µM (inactive)
N#Cc1ccc(C2NN=CC23C(=O)c2ccccc2OC3c2ccccc2)cc1 (stereo not given) | 39.4 µM (inactive) | 18.8 µM (inactive) | 21.1 µM (inactive) | 34.2 µM (inactive) | 33.5 µM (inactive) | 52.4 µM (inactive) | 32.6 µM (inactive) | 33.8 µM (inactive) | 30.8 µM (inactive) | 97.1 µM (inactive) | 22.3 µM (inactive) | 31.8 µM (inactive) | 15 µM (inactive) | 25.4 µM (inactive) |  | 25.4 | 20.5 µM (inactive) | 36.4 µM (inactive) | 54.6 µM (inactive) | 42.2 µM (inactive)
CC12CC(OC(=O)[C@]1(C)O)[C@@H]([C@]1(O)CC[C@H]3[C@@H]4C[C@H]5O[C@]56[C@@H](O)C=CC(=O)[C@]6(C)[C@H]4CC[C@@]31C)C2 (stereo not given in full) | 40.7 µM (inactive) | 3.39 µM (inactive) | 2.84 µM (inactive) | 3.08 µM (inactive) | 3.17 µM (inactive) | 5.41 µM (inactive) | 1.33 µM (inactive) | 11.2 µM (inactive) | 7.4 µM (inactive) | 9.02 µM (inactive) | 2.54 µM (inactive) | 34.1 µM (inactive) | 3.01 µM (inactive) | 7.36 µM (inactive) |  | 7.33 | 3.63 µM (inactive) | 14.4 µM (inactive) | 28.9 µM (inactive) | 2.78 µM (inactive)
CC1CC[C@@]2(OC1)OC1C[C@H]3[C@@H]4CC=C5CC(OC6OC(CO)C(OC7OC(CO)C(O)C(OC8OCC(O)C(O)C8O)C7OC7OC(CO)C(OC8OC(C)C(OC9OC(C)C(O)C(O)C9O)C(O)C8O)C(O)C7O)C(O)C6O)CCC5(C)[C@H]4CCC3(C)C1[C@@H]2C (stereo not given in full) | 9.08 µM (inactive) | 8.22 µM (inactive) | 8.28 µM (inactive) | 14.1 µM (inactive) | 8.05 µM (inactive) | 9.71 µM (inactive) | 10.4 µM (inactive) | 4.21 µM (inactive) | 9.06 µM (inactive) | 4.28 µM (inactive) | 11.6 µM (inactive) | 9.23 µM (inactive) | 6.34 µM (inactive) | 8.59 µM (inactive) |  | 9.64 | 8.47 µM (inactive) | 9.33 µM (inactive) | 7.13 µM (inactive) | 6.08 µM (inactive)
COc1ccc(C(=O)NCCC2CN(S(=O)(=O)C(F)(F)F)c3ccccc32)c(OC)c1 (stereo not given) |  | 34.5 µM (inactive) | 39 µM (inactive) | 52.1 µM (inactive) | 28.3 µM (inactive) |  | 17.2 µM (inactive) | 69.3 µM (inactive) | 30.1 µM (inactive) | 35.1 µM (inactive) | 29.1 µM (inactive) | > 100 µM (inactive) | > 100 µM (inactive) |  |  | 57.4 | 35.8 µM (inactive) | 21.3 µM (inactive) | 88.5 µM (inactive) | 
CC(C)(Oc1ccc(C2C[C@H]2Cl)cc1)C(=O)O (stereo not given in full) |  | > 100 µM (inactive) | > 100 µM (inactive) | > 100 µM (inactive) | > 100 µM (inactive) |  |  | > 100 µM (inactive) | > 100 µM (inactive) |  | > 100 µM (inactive) | > 100 µM (inactive) | > 100 µM (inactive) | > 100 µM (inactive) | > 100 µM (inactive) | > 100 | > 100 µM (inactive) | > 100 µM (inactive) | > 100 µM (inactive) | > 100 µM (inactive)
Cc1ccc(S(=O)(=O)NCCCSCCSCCCN)cc1 | > 100 µM (inactive) | > 100 µM (inactive) |  | > 100 µM (inactive) | > 100 µM (inactive) | > 100 µM (inactive) | > 100 µM (inactive) | > 100 µM (inactive) | > 100 µM (inactive) | > 100 µM (inactive) | > 100 µM (inactive) | > 100 µM (inactive) | > 100 µM (inactive) | > 100 µM (inactive) | > 100 µM (inactive) | > 100 | > 100 µM (inactive) | > 100 µM (inactive) |  | 
Cc1ccc2nc(CN3CCCCC3)cc(=O)n2c1 | > 100 µM (inactive) | > 100 µM (inactive) | > 100 µM (inactive) | > 100 µM (inactive) | > 100 µM (inactive) | > 100 µM (inactive) | > 100 µM (inactive) | > 100 µM (inactive) | > 100 µM (inactive) | > 100 µM (inactive) | > 100 µM (inactive) | > 100 µM (inactive) |  | > 100 µM (inactive) | > 100 µM (inactive) | > 100 | > 100 µM (inactive) | > 100 µM (inactive) | > 100 µM (inactive) | > 100 µM (inactive)
